Columns and labels:
Assay in all cases: relative viability (nuclei count vs DMSO), 5 days (fraction); higher = more cells survive
Apatinib + Palbociclib = compound: N#CC1(c2ccc(NC(=O)c3cccnc3NCc3ccncc3)cc2)CCCC1 [Apatinib] + CC(=O)c1c(C)c2cnc(Nc3ccc(N4CCNCC4)cn3)nc2n(C2CCCC2)c1=O [Palbociclib] (partner 0.5 µM)
Procedure, shortened: (§1)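 Lung cancer cell lines were pin-tool dosed in 1536-well plates on the day after seeding, with either a lone drug or a fixed anchor-drug dose plus five library-drug doses (not always all listed) in √10 steps. Nuclei were counted on 4× images after 5 days. Relative viability is the ratio of treated-well to vehicle-well nuclei counts, with each value a median of duplicate plates.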

Apatinib + Decitabine = compound: N#CC1(c2ccc(NC(=O)c3cccnc3NCc3ccncc3)cc2)CCCC1 [Apatinib] + Nc1ncn([C@H]2C[C@H](O)[C@@H](CO)O2)c(=O)n1 [Decitabine] (partner 2 µM)
Procedure, shortened: as §1

Metformin + Crizotinib = compound: CN(C)C(=N)NC(=N)N [Metformin] + C[C@@H](Oc1cc(-c2cnn(C3CCNCC3)c2)cnc1N)c1c(Cl)ccc(F)c1Cl [Crizotinib] (partner 1 µM)
Procedure, shortened: as §1

Metformin + Linsitinib = compound: CN(C)C(=N)NC(=N)N [Metformin] + C[C@]1(O)C[C@@H](c2nc(-c3ccc4ccc(-c5ccccc5)nc4c3)c3c(N)nccn32)C1 [Linsitinib] (partner 1 µM)
Procedure, shortened: as §1

Cell Line	relative viability (Apatinib + Palbociclib; first compound 0.08 µM)	relative viability (Apatinib + Palbociclib; first compound 0.253 µM)	relative viability (Apatinib + Palbociclib; first compound 0.8 µM)	relative viability (Apatinib + Palbociclib; first compound 2.53 µM)	relative viability (Apatinib + Palbociclib; first compound 8 µM)	relative viability (Apatinib + Decitabine; first compound 0.08 µM)	relative viability (Apatinib + Decitabine; first compound 0.253 µM)	relative viability (Apatinib + Decitabine; first compound 0.8 µM)	relative viability (Apatinib + Decitabine; first compound 2.53 µM)	relative viability (Apatinib + Decitabine; first compound 8 µM)	relative viability (Metformin + Crizotinib; first compound 31.62 µM)	relative viability (Metformin + Crizotinib; first compound 100 µM)	relative viability (Metformin + Crizotinib; first compound 316.23 µM)	relative viability (Metformin + Crizotinib; first compound 1000 µM)	relative viability (Metformin + Linsitinib; first compound 31.62 µM)	relative viability (Metformin + Linsitinib; first compound 100 µM)	relative viability (Metformin + Linsitinib; first compound 316.23 µM)	relative viability (Metformin + Linsitinib; first compound 1000 µM)	relative viability (Metformin + Crizotinib; first compound 10 µM)	relative viability (Metformin + Linsitinib; first compound 10 µM)
201T	0.366	0.362	0.354	0.381	0.292	0.863	0.895	0.842	0.85	0.781	1.04	1.07	0.965	1	1.12	1.1	1.07	1.06		
NCI-H838	0.229	0.261	0.206	0.215	0.217	0.489	0.48	0.493	0.442	0.469	0.814	0.875	0.864	0.854	1.09	1.05	0.988	1.02	0.815	1.04
HOP-62	0.441	0.366	0.377	0.361	0.219	0.221	0.212	0.2	0.428	0.519	0.995	1.11	0.765	0.917	1.09	0.995	1.04	0.846	0.917	0.891
LC-2-ad	0.476	0.501	0.516	0.436	0.356	0.862	0.776	0.792	0.668	0.698	0.357	0.338	0.415	0.378	0.716	0.628	0.695	0.678	0.369	
LCLC-97TM1	0.238	0.276	0.193	0.204	0.173	0.268	0.244	0.237	0.185	0.228	0.4	0.457	0.382	0.543	0.17	0.146	0.187	0.243	0.401	0.175
NCI-H1993	0.783	0.736	0.597	0.528	0.616	0.604	0.623	0.519	0.559	0.544	0.849	1.22	1.06	1.31	0.73	0.838	0.686	0.705	1.12	0.719
NCI-H520	0.227	0.238	0.25	0.197	0.214	0.544	0.476	0.559	0.5	0.486	0.75	0.803	0.752	0.606	0.842	1.02	0.914	0.931	0.804	1.09
SK-MES-1	0.335	0.323	0.282	0.292	0.278	0.404	0.36	0.488	0.975	0.903	0.893	0.925	0.784	0.932	0.927	0.993	0.939	1.02	0.884	0.979
NCI-H2085	0.469	0.493	0.487	0.416	0.437	0.592	0.573	0.582	0.587	0.712	0.694	0.947	0.721	0.879	0.8	0.765	0.844	0.875	0.952	0.822
NCI-H441	0.234	0.217	0.219	0.211	0.212	0.229	0.233	0.248	0.285	0.444		0.638	0.457	0.655		0.536	0.478	0.605	0.337	0.432
PC-3 [JPC-3]		0.555	0.557	0.516	0.53		0.869	0.763	0.908	1.04	0.893	0.951	0.876	0.901	1.01	0.902	0.918	0.942	0.861	0.895
NCI-H1944	0.362	0.327	0.272	0.325	0.255	0.41	0.466	0.401	0.421	0.504	1.29	1.26	1.11	1.12	1.39	1.34	1.27	1.26	1.06	1.36
